Assay results: ChEMBL document CHEMBL3352100, “Visible light-induced nitric oxide release from a novel nitrobenzene derivative cross-conjugated with a coumarin fluorophore” (Bioorg Med Chem Lett, 2014)
Activity calls are given as the source filed them. The calls are words filed in the database; no cut-off is given here.

How the values were obtained:
[1] = Induction of nitric oxide release in potassium phosphate buffer at pH 7.35 at 100 uM photoirradiated with 15 mW/cm'2 light for 10 mins by spectrometric analysis in presence of Fe2+/MGD2 complex; assay type: physicochemical; details: pH 7.35, 10 min
[2] = Induction of nitric oxide release in potassium phosphate buffer at pH 7.35 at 500 uM photoirradiated with 190 mW/cm'2 light for 15 mins by LC/ESI-MS analysis in presence of Fe2+/MGD2 complex; assay type: physicochemical; details: pH 7.35, 0.25 h
HCT-116 = test: Induction of nitric oxide release in human HCT116 cells at 25 uM incubated for 3 hrs followed by […] irradiation by DAR-4M/AM staining-based fluorescence microscopy relative to control; assay type: functional, cell-based
[3] = Cellular uptake in human HCT116 cell cytoplasm at 100 uM by confocal fluorescence microscopy; assay type: ADME, cell-based; details: hct-116, 100 µM
[4] = Induction of nitric oxide release in potassium phosphate buffer at pH 7.35 at 100 uM photoirradiated with 180 mW/cm'2 light for 15 mins by LC/ESI-MS analysis in presence of Fe2+/MGD2 complex; assay type: physicochemical; details: pH 7.35, 0.25 h

Activity [1]	Activity [2]	Drug uptake [3]	Activity [4]	Structure (SMILES)	Activity (HCT-116)
Active	Active	Active		Cc1cc(/C=C/c2cc(=O)oc3cc(O)c(Br)cc23)cc(C)c1[N+](=O)[O-]	Active
			Not Active	CCN(CC)c1ccc2c(C)c(/C=C/c3cc(C)c([N+](=O)[O-])c(C)c3)c(=O)oc2c1	
